Reference: patent EP2292587A1, “PHARMACEUTICAL COMPOSITION FOR INHIBITING THE TRANSCRIPTION FACTOR INDUCIBLE BY HYPOXIA, MODULATORS OF PATHOLOGICAL PROCESSES OF ANGIOGENESIS, ONCOGENESIS, INFLAMMATION, APOPTOSIS, AND CELLULAR THERAPY” (Fundacion De La Comunidad Valenciana Centro De …, priority 2008, dated 2009)
Like-named read-outs stand apart in the source and are kept apart here.

Test system: HIF
Assay: luciferase cell assay based on the HIF response elements (HRE), HeLa 9XHRE-LUC
Design: species or system human
Details: cell assay based on the HIF response elements (Example 1), HeLa 9XHRE-LUC, read-out: IC50 HRE
Text: In order to identify direct inhibitors of the activity of HIF, a stable recombinant line was first constructed from the cervical tumor line, known in scientific literature as HeLa, which contained the deoxyribonucleic acid (DNA) sequences of the region located between positions -985 and -951 of the human vascular endothelial growth factor (hVEGF), repeated nine times (9X) and fused to the luciferase reporter gene (LUC). This plasmid, provided by Dr. Manuel Ortiz de Landazuri from the Hospital de La Princesa of Madrid, called 9XHRE-LUC, was prepared using a commercial kit (Endofree Maxi-Prep; Qiagen, Inc., Valencia, CA). The transfections were performed with FuGene6 (Roche, cat.1814443) according to the manufacturer's instructions, the µg DNA: µg FuGene ratio was 1:3. The transfected cell lines were generated by cotransfection with the vector pCMV-Hygrom which expressed a hygromycin resistance gene in mammalian cells, allowing the selection of the transfected clones. After 48 hours, the growth medium was substituted with fresh medium containing 100 µg/ml hygromycin (Sigma), the clones resistant to the antibiotic were collected and analyzed by means of RT-PCR to select the clone with the desired construct. Routinely, the HeLa 9XHRE-LUC cell line was maintained in exponential growth by means of performing subcultures in DMEM (Invitrogen-Life Technologies, Inc., Carlsbad, CA), supplemented with 10% inactivated fetal bovine serum (Whittacker Bioproducts), penicillin (50 IU/ml), streptomycin (50 µg/ml) (Invitrogen-Life Technologies, Inc., Carlsbad, CA). The cells were cultured at 37°C with a humidified atmosphere containing 5% CO2 and 300 nM Desferoxamine (DFX; Sigma St. Louis, MO).
The compounds of the Collection of the CIPF, coming from a selection of commercial collections of Sigma-Aldrich, were solubilized in DMSO at a final concentration of 5 mM and preserved at -80°C. The concentration of these compounds in the luciferase assay was 1 mcM finally in the well of the multi-well plate in which the reaction was carried out. The luciferase assays were performed in white 96-well plates (Valtecknova ref. 3917), using the kit Bright-Glo™ Luciferase Assay System (Promega, Inc., Madison, WI) following the instructions supplied by the manufacturer.
According to the methodology of the cell assay based on the HIF response elements (Example 1), the intermediate compounds of the synthesis and several synthesized analogs were tested to obtain the SAR of FM19G11.

| IC50 (Homo sapiens) [µM] | IC50 [µM] | Compound |
| --- | --- | --- |
| > 1 |  | O=C(O)c1cccc(NC(=O)c2ccc([N+](=O)[O-])cc2C(F)(F)F)c1 [Compound 9, 3-(4-nitro-2-(trifluoromethyl)benzamido)benzoic acid] |
| 0.3 |  | Cc1ccc(C(=O)COC(=O)c2cccc(NC(=O)c3ccc(C(F)(F)F)cc3C(F)(F)F)c2)cc1 [Compound 13, 2-oxo-2-(p-tolyl)ethyl 3-(2,4-bis(trifluoromethyl)benzamido)benzoate] |
| > 1 |  | COC(=O)c1cccc(NC(=O)c2ccc(C(F)(F)F)cc2[N+](=O)[O-])c1 [Compound 5, methyl 3-(2-nitro-4-(trifluoromethyl)benzamido)benzoate] |
|  | 1 | O=C(COC(=O)c1cccc(NC(=O)c2ccc([N+](=O)[O-])cc2[N+](=O)[O-])c1)c1ccc(C(F)(F)F)cc1 [Compound 17, 2-oxo-2-(4-trifluoromethyl) ethyl 3-(2,4-(dinitro)benzamido)benzoate] |
| 0.084 |  | Cc1ccc(C(=O)COC(=O)c2cccc(NC(=O)c3ccc(C(F)(F)F)cc3[N+](=O)[O-])c2)cc1 [Compound 7, 2-oxo-2-(p-tolyl)ethyl 3-(2-nitro-4-(trifluoromethyl)benzamido)benzoate] |
| > 1 |  | O=C(O)c1cccc(NC(=O)c2ccc(C(F)(F)F)cc2[N+](=O)[O-])c1 [Compound 6, 3-(2-nitro-4-(trifluoromethyl)benzamido)benzoic acid] |
| 0.14 |  | Cc1ccc(C(=O)COC(=O)c2cccc(NC(=O)c3ccc([N+](=O)[O-])cc3C(F)(F)F)c2)cc1 [Compound 10, 2-oxo-2-(p-tolyl)ethyl 3-(4-nitro-2-(trifluoromethyl)benzamido)benzoate] |
| > 1 |  | COC(=O)c1cccc(NC(=O)c2ccc([N+](=O)[O-])cc2C(F)(F)F)c1 [Compound 8, methyl 3-(4-nitro-2-(trifluoromethyl)benzamido)benzoate] |
| 1.4 |  | O=C(O)c1cccc(NC(=O)c2ccccc2[N+](=O)[O-])c1 [Compound 24, 3-(2-nitrobenzamido)benzoic acid] |
| > 1 |  | O=C(O)c1cccc(NC(=O)c2ccc(C(F)(F)F)cc2C(F)(F)F)c1 [Compound 12, 3-(2,4-bis-(trifluoromethyl)benzamido)benzoic acid] |

The next lines start with the compound.

| Compound | IC50 (Homo sapiens) [µM] | IC50 [µM] |
| --- | --- | --- |
| O=C(COC(=O)c1cccc(NC(=O)c2ccc([N+](=O)[O-])cc2[N+](=O)[O-])c1)c1ccc(O)cc1 [Compound 26, 2-(4-hydroxyphenyl)-2-oxoethyl 3-(2,4-(dinitro)benzamido)benzoate] |  | 0.36 |
| Cc1ccc(C(=O)COC(=O)c2cccc(NC(=O)c3ccccc3)c2)cc1 [Compound 16, 2-oxo-2-(p-tolyl)ethyl 3-(benzamido)benzoate] | > 1 |  |
| O=C(COC(=O)c1cccc(NC(=O)c2ccc([N+](=O)[O-])cc2[N+](=O)[O-])c1)c1ccccc1 [Compound 19, 2-phenyl-2-oxoethyl 3-(2,4-(dinitro)benzamido)benzoate] | > 1 |  |
| Cc1ccc(C(=O)COC(=O)c2cccc(NC(=O)c3ccccc3[N+](=O)[O-])c2)cc1 [Compound 25, 2-oxo-2-(p-tolyl)ethyl 3-(2-nitrobenzamido)benzoate] | 2.8 |  |
| COC(=O)c1cccc(NC(=O)c2ccc([N+](=O)[O-])cc2[N+](=O)[O-])c1 [Compound 2, methyl 3-((2,4-dinitro)benzamido)benzoate] | > 1 |  |
| Cc1ccc(C(=O)COC(=O)c2cccc(NC(=O)c3ccc([N+](=O)[O-])cc3)c2)cc1 [Compound 22, 2-oxo-2-(p-tolyl)ethyl 3-(4-nitrobenzamido)benzoate] | 2.5 |  |
| O=C(O)c1cccc(NC(=O)c2ccc([N+](=O)[O-])cc2[N+](=O)[O-])c1 [Compound 3, 3-((2,4-dinitro)benzamido)benzoic acid] | > 1 |  |
| COC(=O)c1cccc(NC(=O)c2ccccc2[N+](=O)[O-])c1 [Compound 23, methyl 3-(2-nitrobenzamido)benzoate] | > 1 |  |
| O=C(O)c1ccc(C(=O)COC(=O)c2cccc(NC(=O)c3ccc([N+](=O)[O-])cc3[N+](=O)[O-])c2)cc1 [Compound 29, 4-(2-(3-(2,4-dinitrobenzamido)benzoyloxy)-acetyl)benzoic acid] | 1.4 |  |
